Assay results from patent US11000033B2, “Ketone or oxime compound, and herbicide” (NISSAN CHEMICAL CORPORATION, priority 2014, dated 2021).

Columns and labels:
Type in all cases: in vivo
[1] = test system: Echinochloa oryzacola Vasing.; assay: Test Example 1: herbicidal activity, application before weed generation in submerged conditions (symbol A); conditions: application herbicide amount 320 g/ha
Summary of the method: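 Pre-emergence, paddy conditions: emulsifiable formulation diluted in water, dosed onto floodwater (4 cm depth) on sowing day. Alluvial soil; weeds sown mixed; rice transplanted at 2.5-leaf stage. Greenhouse 25–30 °C, 3 wk. Score 0–5 (5 = ≥90% kill, 0 = ≤5%).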

transplanted rice plant = assay: Test Example 1: effect on crop, application before weed generation in submerged conditions (symbol a); conditions: application herbicide amount 320 g/ha
Summary of the method: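 Rice at 2.5 leaf stage transplanted into submerged soil (4 cm depth) sown with three weed species; herbicide applied before weed emergence.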

[2] = test system: Echinochloa oryzacola Vasing.; assay: Test Example 2: herbicidal activity, application during weed generation in submerged conditions (symbol A); conditions: Table 23; application herbicide amount 320 g/ha; grade 0-5 by criteria of Test Example 1
Summary of the method: (§1)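 Treatment timing was the one- to two-leaf stage, with diluted emulsifiable compound dropped onto the paddy water (depth 4 cm) over alluvial soil. All three species grew from a mixed sowing in a 25° C. to 30° C. greenhouse. Injury was judged by eye 3 weeks on.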

Monochoria vaginalis = assay: Test Example 2: herbicidal activity, application during weed generation in submerged conditions (symbol C); conditions: Table 23; application herbicide amount 320 g/ha; grade 0-5 by criteria of Test Example 1
Summary of the method: as §1

[3] = test system: directly sowed rice plant; assay: Test Example 3: effect on crop by foliage application, Wagner pot (symbol b); conditions: application herbicide amount 320 g/ha
Summary of the method: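 Greenhouse culture at 25–30 °C of seeded rice, Cyperus difformis, Leptochloa chinensis and Echinochloa crus-galli var. crus-galli, in alluvial soil held under 0.1–0.5 cm of water in a Wagner pot.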

Setaria viridis = assay: Test Example 4: herbicidal effect by soil treatment (symbol G); conditions: application herbicide amount 320 g/ha
Summary of the method: (§2)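 Seeds were sown in sterilized diluvial soil, covered with about 1.5 cm of soil, and the soil surface was sprayed with a water-diluted emulsion of the compound at a predetermined rate. Plants grew in a greenhouse at 25° C. to 30° C.; effects were scored visually 3 weeks after application.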

Avena fatua = assay: Test Example 4: herbicidal effect by soil treatment (symbol I); conditions: application herbicide amount 320 g/ha
Summary of the method: as §2

rapeseed = assay: Test Example 4: effect on crop by soil treatment (symbol g); conditions: application herbicide amount 320 g/ha
Summary of the method: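 Plants grew in a 25° C. to 30° C. greenhouse after spot-sowing of seeds, including beet, rapeseed, wheat and rice, into sterilized diluvial soil under roughly 1.5 cm of cover soil.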

Digitaria ciliaris = assay: Test Example 5: herbicidal effect by foliage application, plastic box (symbol F); conditions: 320 g/ha, 3 weeks after application
Summary of the method: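 Herbicide, formulated as an emulsion and diluted in water, is sprayed onto the aerial parts of 14-day seedlings. These were grown at 25° C. to 30° C. in sterilized diluvial soil; effects are graded after 3 weeks.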

corn = assay: Test Example 5: effect on crop by foliage application, plastic box (symbol c); conditions: 320 g/ha, 3 weeks after application
Summary of the method: (§3)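 Plants were raised from seed in a greenhouse (25° C. to 30° C.) after sowing in a plastic box of sterilized diluvial soil.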

wheat = assay: Test Example 5: effect on crop by foliage application, plastic box (symbol e); conditions: 320 g/ha, 3 weeks after application
Summary of the method: as §3

| SMILES | Herbicidal effect grade, A: Echinochloa oryzacola Vasing. [1] | Effect grade on crop, a: transplanted rice plant (transplanted rice plant) | Herbicidal effect grade, A: Echinochloa oryzacola Vasing. [2] | Herbicidal effect grade, C: Monochoria vaginalis (Monochoria vaginalis) | effect on crop b (directly sowed rice plant), grade 0-5 [3] | G: Setaria viridis, herbicidal effect grade (Setaria viridis) | I: Avena fatua, herbicidal effect grade (Avena fatua) | g: rapeseed, effect on crop grade (rapeseed) | F: Digitaria ciliaris, herbicidal effect grade (Digitaria ciliaris) | c: corn, effect on crop grade (corn) | e: wheat, effect on crop grade (wheat) |
| --- | --- | --- | --- | --- | --- | --- | --- | --- | --- | --- | --- |
| CON=C(C)CC1CC(O)=C(c2c(C)cc(C)cc2OC)C1=O (stereo not drawn) [6-037, 3-hydroxy-2-(2-methoxy-4,6-dimethylphenyl)-5-{2-(methoxyimino)propyl}cyclopent-2-enone] | 5 (Herbicidal ratio of 90% or more (almost completely withered)) | 5 (Herbicidal ratio of 90% or more (almost completely withered)) | 5 (Herbicidal ratio of 90% or more (almost completely withered)) | 4 (Herbicidal ratio of 70% or higher and lower than 90%) | 5 (Herbicidal ratio of 90% or more (almost completely withered)) | 5 (Herbicidal ratio of 90% or more (almost completely withered)) | 5 (Herbicidal ratio of 90% or more (almost completely withered)) | 3 (Herbicidal ratio of 40% or higher and lower than 70%) | 5 (Herbicidal ratio of 90% or more (almost completely withered)) | 5 (Herbicidal ratio of 90% or more (almost completely withered)) | 5 (Herbicidal ratio of 90% or more (almost completely withered)) |
| CON=C(C)CC1CC(O)=C(c2c(C)cc(C)cc2Br)C1=O (stereo not drawn) [6-038] | 5 (Herbicidal ratio of 90% or more (almost completely withered)) | 5 (Herbicidal ratio of 90% or more (almost completely withered)) | 4 (Herbicidal ratio of 70% or higher and lower than 90%) | 1 (Herbicidal ratio of 5% or higher and lower than 20%) | 5 (Herbicidal ratio of 90% or more (almost completely withered)) | 4 (Herbicidal ratio of 70% or higher and lower than 90%) | 2 (Herbicidal ratio of 20% or higher and lower than 40%) | 5 (Herbicidal ratio of 90% or more (almost completely withered)) | 5 (Herbicidal ratio of 90% or more (almost completely withered)) | 5 (Herbicidal ratio of 90% or more (almost completely withered)) | 3 (Herbicidal ratio of 40% or higher and lower than 70%) |
| CON=C(C)CC1CC(O)=C(c2c(C)cc(OCC(F)(F)F)cc2C)C1=O (stereo not drawn) [6-049] | 5 (Herbicidal ratio of 90% or more (almost completely withered)) | 5 (Herbicidal ratio of 90% or more (almost completely withered)) | 5 (Herbicidal ratio of 90% or more (almost completely withered)) | 3 (Herbicidal ratio of 40% or higher and lower than 70%) | 5 (Herbicidal ratio of 90% or more (almost completely withered)) | 5 (Herbicidal ratio of 90% or more (almost completely withered)) | 5 (Herbicidal ratio of 90% or more (almost completely withered)) | 5 (Herbicidal ratio of 90% or more (almost completely withered)) | 5 (Herbicidal ratio of 90% or more (almost completely withered)) | 5 (Herbicidal ratio of 90% or more (almost completely withered)) | 5 (Herbicidal ratio of 90% or more (almost completely withered)) |
